Read-outs that look alike come from different tables or passages of the source.
Columns and labels:
[1] = tested on: patients with advanced cancer; test: Multidimensional Fatigue Symptom Inventory-Short Form (MFSI-SF), Example 1 study; format: in vivo, human; conditions: Day 86 (N = 8), change from baseline, 100 mg oral daily + physical activity + nutritional counseling
Protocol: (§1) In this single arm study, 38 patients were intended for treatment with anamorelin for 6 weeks with an optional extension phase of 6 more weeks based on tolerability and safety and patient willingness. Patients received anamorelin 100 mg tablets and physical activity for 6 weeks for the intervention phase. Patients took 1 tablet orally while fasting (at least 1 hour before a meal).
(§2) Secondary objectives of the study were to examine the effects of anamorelin and standardized physical activity and nutritional counseling on Health-related quality of life and patient reported outcomes as measured by The Multidimensional Fatigue Symptom Inventory-Short Form[MFSI-SF], PROMIS-Fatigue, Hospital Anxiety Depression Scale (HADS), Edmonton Symptom Assessment Scale (ESAS), Functional Assessment of Cancer Therapy (FACT-G), and its Functional Assessment of Anorexia/Cachexia Treatment (FAACT) subscale in these patients.
MFSI-SF consists of 30 items designed to assess the multidimensional nature of fatigue(Stein, Jacobsen et al. 2004). Ratings are summed to obtain scores for 5 subscales (general fatigue, physical fatigue, emotional fatigue, mental fatigue, and vigor).

[2] = tested on: patients with advanced cancer; test: PROMIS-Fatigue, Example 1 study; format: in vivo, human; conditions: change from baseline, 100 mg oral daily + physical activity + nutritional counseling
Protocol: as §1, §2
PROMIS measures key symptoms and health concepts applicable to advanced cancer, enabling efficient and interpretable clinical trial research and clinical practice application of patient-reported outcomes (PROs) (Rothrock, Hays et al. 2010, Yost, Eton et al. 2011).

[3] = tested on: patients with advanced cancer; test: FACT-G, Example 1 study; format: in vivo, human; conditions: change from baseline, 100 mg oral daily + physical activity + nutritional counseling
Protocol: as §1, §2
The FACT-G is a 27-item compilation of general questions divided into four primary domains: Physical Well-Being, Social/Family Well-Being, Emotional Well-Being, and Functional Well-Being. It is appropriate for use in patients with any form of cancer, and extensions of it have been used and validated in other chronic illness conditions as well (Cella, Tulsky et al. 1993, Webster, Cella et al. 2003). The FACT-G is the first 2 pages of FACIT-F.

[4] = tested on: patients with advanced cancer; test: FAACT Anorexia/Cachexia subscale, Example 1 study; format: in vivo, human; conditions: change from baseline, 100 mg oral daily + physical activity + nutritional counseling
Protocol: as §1, §2
The FAACT-Anorexia/Cachexia subscale is a 12-item symptom-specific subscale designed to measure patients' additional concerns about their anorexia/cachexia during the previous 7 days. The FAACT has internal consistency and a reliability coefficient (Cronbach's alpha) of 0.88 for the 12 components (Ribaudo, Cella et al. 2000). Patients rate the intensity of anorexia/cachexia and its related symptoms on a 0-4 scale like that used in the FACIT-F.

[5] = tested on: patients with advanced cancer; test: Pittsburgh Sleep Quality Index (PSQI), Example 1 study; format: in vivo, human; conditions: 100 mg oral daily + physical activity + nutritional counseling
Protocol: as §1

[6] = tested on: patients with advanced cancer; test: Godin Leisure-Time physical activity questionnaire, Example 1 study; format: in vivo, human; conditions: Day 86 (N = 8), change from baseline, 100 mg oral daily + physical activity + nutritional counseling
Protocol: as §1
(§3) Measures: We used the 30 second chair stand test, six-minute walk test, and an accelerometer. A self-report exercise questionnaire, the Godin Leisure-Time physical activity questionnaire, was used to complement the objective measures. IM Systems-three dimensional accelerometers (“Biotrainer-Pro”) was used to objectively measure physical activity.
(§4) Physical Performance Tests: The 30 second chair stand test, 6-minute walk test, and Godin Leisure-Time physical activity questionnaire were administered at baseline and on Day 43. The 30 second sit-to-stand task assessed lower body strength (Rikli and Jones 1999).
The Godin Leisure-Time physical activity questionnaire asks participants how many times per week on average they participate in strenuous, moderate and mild exercises for more than 15 minutes during their free time. […]

[7] = tested on: patients with advanced cancer; test: Global Symptom Evaluation, Example 1 study; format: in vivo, human; conditions: time point not clearly stated; 100 mg oral daily + physical activity + nutritional counseling
Protocol: as §1

[8] = Weight and body composition (InBody), Example 1 study; format: in vivo, human; conditions: Day 43, 28 evaluable patients, 100 mg oral daily + physical activity + nutritional counseling
Protocol: as §1
(§5) Exploratory objectives of the study were to explore the effects of anamorelin and standardized physical activity and nutritional counseling on muscle function (as measured by the 30 second chair stand test, 6 minute walk test, day time activity (accelerometer), body composition (as measured by INBODY), and Resting Energy Expenditure (measured by indirect calorimetry)
Body Composition: All patients were assessed for lean body mass, skeletal muscle mass, extracellular water/total body water body, fat mass, body fat mass, and whole body phase angle evaluation (using the InBody body composition scale) (Dalal, Hui et al. 2012, Del Fabbro, Parsons et al. 2012, Yennurajalingam, Willey et al. 2012, Hui, Bansal et al. 2014). Resting energy expenditure was assessed at baseline and Day 43±3 days, and at the end of 6 weeks of the extension phase.

IGF-1 = IGF-1 level, Example 1 study; format: in vivo, human; conditions: Day 43, 28 evaluable patients, 100 mg oral daily + physical activity + nutritional counseling
Protocol: as §1

[9] = tested on: patients with advanced cancer; test: Physical performance tests (30 second chair stand test, 6-minute walk test), Example 1 study; format: in vivo, human; conditions: Day 43 vs baseline, 100 mg oral daily + physical activity + nutritional counseling
Protocol: as §1, §5
Measures: We used the 30 second chair stand test, six-minute walk test, and an accelerometer. A self-report exercise questionnaire, the Godin Leisure-Time physical activity questionnaire, was used to complement the objective measures. […]
as §4
In the six-minute walk test, participants were asked to walk as fast and as far as they can for six minutes, and the distance walked was measured. […]

[10] = tested on: patients with advanced cancer; test: Daytime activity by accelerometer (actigraphy), Example 1 study; format: in vivo, human; conditions: 100 mg oral daily + physical activity + nutritional counseling
Protocol: as §1, §5, §3

[11] = tested on: patients with advanced cancer; test: Adverse events, Example 1 study; format: in vivo, human; conditions: 100 mg oral daily, 6 weeks with optional 6 week extension
Protocol: as §1

[12] = tested on: cachectic patients with non-small cell lung cancer; conditions: cited from earlier work
[13] = tested on: Patients With Non—Small Cell Lung Cancer and Cachexia; conditions: study by Katakami and Uchino et al. 2018; cited from earlier work
[14] = ROMANA 1 and ROMANA 2, both studies

In the case of `CN(C)N(C)C(=O)[C@@]1(Cc2ccccc2)CCCN(C(=O)[C@@H](Cc2c[nH]c3ccccc23)NC(=O)C(C)(C)N)C1` [anamorelin], the “MFSI-SF Mental fatigue, change, Mean (±SD)” value [1] is reported as −2.25 (±3.62),, the “MFSI-SF Physical fatigue, change, Mean (±SD)” value [1] is reported as −1.88 (±3.98), and the “MFSI-SF Total, change, Mean (±SD)” value [1] is reported as −11.75 (±14.22),. For the same molecule, the “MFSI-SF Vigor, change, Mean (±SD)” value [1] was 2.75 (±3.01),, the “PROMIS-Fatigue, change, Mean (±SD)” value ([2]; Day 15 (N = 28)) was −2.74 (±6.12), and the “PROMIS-Fatigue, change, Mean (±SD)” value ([2]; Day 29 (N = 28)) was −3.64 (±8.22),. For the same molecule, the “PROMIS-Fatigue, change, Mean (±SD)” value ([2]; Day 86 (N = 8)) was −6.36 (±6.32),, the “FACT-G Total, change, Mean (±SD)” value ([3]; Day 15 (N = 28)) was 0.59 (±9.17), and the “FACT-G Total, change, Mean (±SD)” value ([3]; Day 29 (N = 28)) was 1.31 (±8.97),. The “FACT-G Total, change, Mean (±SD)” value ([3]; Day 43 (N = 28)) was −1.10 (±10.71),, the “FACT-G Total, change, Mean (±SD)” value ([3]; Day 86 (N = 8)) was 4.54 (±7.65), and the “FAACT-A/CS Total, change, Mean (±SD)” value ([4]; Day 15 (N = 28)) was 1.70 (±4.89),. For the same molecule, the “FAACT-A/CS Total, change, Mean (±SD)” value ([4]; Day 29 (N = 28)) was 4.53 (±5.54),, the “FAACT-A/CS Total, change, Mean (±SD)” value ([4]; Day 86 (N = 8)) was −5.86 (±3.72), and the “PSQI (N = 15), change, Mean (±SD)” value ([5]; Day 29, change from baseline) was −0.09 (±4.18),. The “PSQI (N = 15), change, Mean (±SD)” value ([5]; Day 43, change from baseline) was −0.09 (±2.12),, the “PSQI (N = 15), change, Mean (±SD)” value ([5]; Day 86, change from baseline) was −0.50 (±2.95), and the “Godin Leisure Test Total, change, Mean (±SD)” value [6] was −0.67 (±6.35),. For the same molecule, the “Global Symptom Evaluation: About the same N (%)” value [7] was 9 (36%), the “Global Symptom Evaluation: Better N (%)” value [7] was 13 (52%) and the “Global Symptom Evaluation: Worse N (%)” value [7] was 3 (12%). The “Lean Body Mass improvement from baseline, mean (SD)” value [8] was 1.54 (±1.85), the “Weight improvement from baseline, mean (SD)” value [8] was 1.81 (±2.63) kg and the “IGF-1 change from baseline, mean (SD)” value (IGF-1) was 36.50 (±48.76). The “Improvement in the physical performance outcomes” value [9] was “no significant improvement”, the “Improvement in mean daytime activity (actigraphy activity measure)” value [10] was “no significant improvement” and the “Severe (≥grade 3) adverse events related to the study drug” value [11] was “No severe (≥grade 3) adverse events”. The “Effect size for improvement in CRF” value ([12]; ROMANA 1) was 0.16, the “Effect on fatigue using the FACIT-F” value [12, 14] was “unable to detect a significant effect” and the “Effect on strength measured by handgrip strength” value [12, 14] was “unable to detect a significant effect”. The “Effect size for improvement in CRF” value ([12]; ROMANA 2) was 0.008, the “Treat fatigue and improve handgrip strength, pooled post-hoc analysis” value ([12]; higher BMIs) was “ineffective” and the “Treat fatigue and improve handgrip strength, pooled post-hoc analysis” value ([12]; patients with BMI less than 20 kg/m^2) was “effective”. The “Effect size for improvement in CRF” value [13] was 0.057.

From US20220401429A1, “USE OF ANAMORELIN TO TREAT CANCER-RELATED FATIGUE” (Helsinn Healthcare SA, priority 2021, published 2022)
